15 compounds from US12054494B2, “Compound with anticancer activity” (KYOWA KIRIN CO., LTD., priority 2018, dated 2024) can be followed below.

In the test the test system is SU-DHL-4 cells. Briefly: Inhibitory effect on cell viability (Cell Counting Kit-8). Particulars: Homo sapiens, 72 hours culture with test compound, concentration showing 90% inhibition rate of cell viability. The class given is cell-based. The protocol: Inhibitiory Effect on Cell Viability
SU-DHL-4 cells (Code No. ACC 495, Deutsche Sammlung von Mikroorganismen and Zellkulturen GmbH) were cultured at 37° C. using a carbon dioxide incubator (95% air, 5% CO2) in RPMI1640 medium (Code No. 11875-093, Thermo Fisher Scientific) in which inactivated fetal bovine serum (FBS: Code No. 10099-148, Thermo Fisher Scientific) in an amount to give a final concentration of 10 vol % and penicillin/streptomycin solution (PS: Code No. 15140-122, Thermo Fisher Scientific) in an amount to give a final concentration of 1 vol % were added. The cells were passaged twice a week at a volume of 20-40 mL so as to maintain a cell concentration of 1×10^6 cells/mL or less.
The cultured SU-DHL-4 cells were seeded at 2000 cells/well in a transparent 384-well plate (Code No. 781182, Greiner bio-one). After seeding, the cells were precultured at 37° C. in a carbon dioxide gas incubator for 18 to 25 hours. Next, 1, 0.1 or 0.01 mmol/L DMSO solution of the test compound was prepared and a 9-step dilution series were prepared so that the concentration will be 200 times the final concentration in the RPMI1640 medium containing the above FBS and PS, and 1/200 volume of the dilution series were added to each well. At this time, the final concentration of DMSO was adjusted to be 0.1 vol %. After adding the test compound, the cells were cultured at 37° C. in a carbon dioxide gas incubator for 72 hours. Next, 0.020 mL of Cell Counting Kit-8 (Code No. CK04, DOJINDO) solution diluted 2-fold or 4-fold with phosphate buffered saline (PBS) was added to each well. Color reaction was carried out in a carbon dioxide gas incubator at 37° C. for 2 to 3 hours, and the absorbance at a wavelength of 450 nm was measured using SpectraMax 340PC (Molecular Devices). The inhibition rate of cell viability was calculated by the following formula, and the concentration of the test compound (IC90 value) showing a 90% inhibition rate of cell viability was calculated. Inhibition rate of cell viability (%)=100−(A−B)/(C−B)×100 • A: Absorbance of a well containing test compound • B: Absorbance of a well without addition of cells • C: Absorbance of a well without addition of test compound
The compound `CCC(=O)N1c2ccccc2[C@H](Nc2ccc(C(=O)N3CCC(C(=O)Nc4ccc(N[C@@H]5C[C@H](C)N(C(=O)CC)c6ccccc65)nc4)CC3)cc2)C[C@@H]1C` (relative stereo) [Compound 10m, 1-(4-(((2S,4R)-2-Methyl-1-propionyl-1,2,3,4-tetrahydroquinolin-4-yl)amino)benzoyl)-N-(6-(((2S*,4R*)-2-methyl-1-propionyl-1,2,3,4-tetrahydroquinolin-4-yl)amino)pyridin-3-yl)piperidine-4-carboxamide] displayed a 90% effect concentration (IC90) of 30.9 nM.

On to `CCC(=O)N1c2ccccc2[C@H](Nc2ccc(C(=O)NCC#CC(=O)Nc3ccc(N[C@@H]4C[C@H](C)N(C(=O)CC)c5ccccc54)nc3)cc2)C[C@@H]1C` (relative stereo) [Compound 10n, 4-(((2S,4R)-2-Methyl-1-propionyl-1,2,3,4-tetrahydroquinolin-4-yl)amino)-N-(4-((6-(((2S*,4R*)-2-methyl-1-propionyl-1,2,3,4-tetrahydroquinolin-4-yl)amino)pyridin-3-yl)amino)-4-oxobut-2-yn-1-yl)benzamide], for which the IC90 is 0.01 nM.

`CCC(=O)N1c2ccccc2[C@H](Nc2ccc(C(=O)NCCC(=O)Nc3ccc(N[C@@H]4C[C@H](C)N(C(=O)CC)c5ccccc54)nc3)cc2)C[C@@H]1C` (relative stereo) [Compound 10o, 4-(((2S,4R)-2-Methyl-1-propionyl-1,2,3,4-tetrahydroquinolin-4-yl)amino)-N-(3-((6-(((2S*,4R*)-2-methyl-1-propionyl-1,2,3,4-tetrahydroquinolin-4-yl)amino)pyridin-3-yl)amino)-3-oxopropyl)benzamide] gave an IC90 of 1.48 nM.

Turning to `CCC(=O)N1c2ccccc2[C@H](NCC2CCN(C(=O)N3CC(C(=O)Nc4ccc(N[C@@H]5C[C@H](C)N(C(=O)CC)c6ccccc65)cc4)C3)CC2)C[C@@H]1C` (relative stereo) [Compound 10p, 1-(4-((((2S*,4R*)-2-Methyl-1-propionyl-1,2,3,4-tetrahydroquinolin-4-yl)amino)methyl)piperidine-1-carbonyl)-N-(4-(((2S,4R)-2-methyl-1-propionyl-1,2,3,4-tetrahydroquinolin-4-yl)amino)phenyl)azetidine-3-carboxamide], the IC90 was 47.5 nM.

For the compound `CCC(=O)N1c2ccccc2[C@H](Nc2ccc(NC(=O)CCCC(=O)Nc3ccc(N[C@@H]4C[C@H](C)N(C(=O)CC)c5cc(CCCN)ccc54)cc3)cc2)C[C@@H]1C` (relative stereo) [Compound 10s, N^1-(4-(((2S*,4R*)-7-(3-Aminopropyl)-2-methyl-1-propionyl-1,2,3,4-tetrahydroquinolin-4-yl)amino)phenyl)-N^5-(4-(((2S,4R)-2-methyl-1-propionyl-1,2,3,4-tetrahydroquinolin-4-yl)amino)phenyl)glutaramide], the IC90 amounted to 21.7 nM.

As to `CCC(=O)N1c2ccccc2[C@H](Nc2ccc(NC(=O)CCCC(=O)Nc3ccc(N[C@@H]4C[C@H](C)N(C(=O)CC)c5cc(/C=C/CN)ccc54)cc3)cc2)C[C@@H]1C` (relative stereo) [Compound 10t, N^1-(4-(((2S*,4R*)-7-((E)-3-Aminoprop-1-en-1-yl)-2-methyl-1-propionyl-1,2,3,4-tetrahydroquinolin-4-yl)amino)phenyl)-N^5-(4-(((2S,4R)-2-methyl-1-propionyl-1,2,3,4-tetrahydroquinolin-4-yl)amino)phenyl)glutaramide], the IC90 was determined as 26.3 nM.

As to `CCC(=O)N1c2ccccc2[C@H](Nc2ccc(NC(=O)CCCC(=O)Nc3ccc(N[C@@H]4C[C@H](C)N(C(=O)CC)c5cc(C6=CCNCC6)ccc54)cc3)cc2)C[C@@H]1C` (relative stereo) [Compound 10u, N^1-(4-(((2S,4R)-2-Methyl-1-propionyl-1,2,3,4-tetrahydroquinolin-4-yl)amino)phenyl)-N^5-(4-(((2S*,4R*)-2-methyl-1-propionyl-7-(1,2,3,6-tetrahydropyridin-4-yl)-1,2,3,4-tetrahydroquinolin-4-yl)amino)phenyl)glutaramide], the IC90 worked out at 15.9 nM.

For `CCC(=O)N1c2ccccc2[C@H](NCCCC2CCN(C(=O)Nc3ccc(N[C@@H]4C[C@H](C)N(C(=O)CC)c5ccccc54)cc3)CC2)C[C@@H]1C` (relative stereo) [Compound 12d, N-(4-(((2S,4R)-2-Methyl-1-propionyl-1,2,3,4-tetrahydroquinolin-4-yl)amino)phenyl)-4-(3-(((2S*,4R*)-2-methyl-1-propionyl-1,2,3,4-tetrahydroquinolin-4-yl)amino)propyl)piperidine-1-carboxamide], the IC90 came to 34.9 nM.

As to `CCC(=O)N1c2ccccc2[C@H](NCCOCCOCc2cn(-c3ccc(N[C@@H]4C[C@H](C)N(C(=O)CC)c5ccccc54)cc3)nn2)C[C@@H]1C` (relative stereo) [Compound 12e, 1-((2S*,4R*)-2-Methyl-4-((2-(2-((1-(4-(((2S,4R)-2-methyl-1-propionyl-1,2,3,4-tetrahydroquinolin-4-yl)amino)phenyl)-1H-1,2,3-triazol-4-yl)methoxy)ethoxy)ethyl)amino)-3,4-dihydroquinolin-1(2H)-yl)propan-1-one], the concentration for an effect of 90% (IC90) amounted to 73.7 nM.

For `CCC(=O)N1c2ccccc2[C@H](NCCCCCCCCC(=O)Nc2ccc(N[C@@H]3C[C@H](C)N(C(=O)CC)c4ccccc43)cc2)C[C@@H]1C` (relative stereo) [Compound 12g, 9-(((2S*,4R*)-2-Methyl-1-propionyl-1,2,3,4-tetrahydroquinolin-4-yl)amino)-N-(4-(((2S,4R)-2-methyl-1-propionyl-1,2,3,4-tetrahydroquinolin-4-yl)amino)phenyl)nonanamide], the IC90 came out at 31.1 nM.

The compound `CCC(=O)N1c2ccccc2[C@H](NCCCCCCCC(=O)Nc2ccc(N[C@@H]3C[C@H](C)N(C(=O)CC)c4ccccc43)cc2)C[C@@H]1C` (relative stereo) [Compound 12h, 8-(((2S*,4R*)-2-Methyl-1-propionyl-1,2,3,4-tetrahydroquinolin-4-yl)amino)-N-(4-(((2S,4R)-2-methyl-1-propionyl-1,2,3,4-tetrahydroquinolin-4-yl)amino)phenyl)octanamide] gave an IC90 of 3.92 nM.

`CCC(=O)N1c2ccccc2[C@H](NCCCC(=O)NCCn2cc(-c3ccc(N[C@@H]4C[C@H](C)N(C(=O)CC)c5ccccc54)cc3)cn2)C[C@@H]1C` (relative stereo) [Compound 12i, 4-(((2S*,4R*)-2-Methyl-1-propionyl-1,2,3,4-tetrahydroquinolin-4-yl)amino)-N-(2-(4-(4-(((2S,4R)-2-methyl-1-propionyl-1,2,3,4-tetrahydroquinolin-4-yl)amino)phenyl)-1H-pyrazol-1-yl)ethyl)butanamide] registered an IC90 of 3.68 nM.

As for `CCC(=O)N1c2ccccc2[C@H](Nc2ccc(NC(=O)CCNC(=O)c3ccc(C4=N[C@@H](CC(=O)OC(C)(C)C)c5nnc(C)n5-c5sc(C)c(C)c54)cc3)cc2)C[C@@H]1C` (relative stereo) [Compound 13i, tert-Butyl 2-((S)-2,3,9-trimethyl-4-(4-((3-((4-(((2S*,4R*)-2-methyl-1-propionyl-1,2,3,4-tetrahydroquinolin-4-yl)amino)phenyl)amino)-3-oxopropyl)carbamoyl)phenyl)-6H-thieno[3,2-f][1,2,4]triazolo[4,3-a][1,4]diazepin-6-yl)acetate], it took 3.37 nM to reach the 90% level (IC90).

The compound `CCC(=O)N1c2ccccc2[C@H](Nc2ccc(NC(=O)CCCC(=O)Nc3ccc(C4=NCc5nnc(C)n5-c5sc(C)c(C)c54)cc3)cc2)C[C@@H]1C` (relative stereo) [Compound 14t, N^1-(4-(((2S*,4R*)-2-Methyl-1-propionyl-1,2,3,4-tetrahydroquinolin-4-yl)amino)phenyl)-N^5-(4-(2,3,9-trimethyl-6H-thieno[3,2-f][1,2,4]triazolo[4,3-a][1,4]diazepin-4-yl)phenyl)glutaramide] showed a 90% effect concentration (IC90) of 1.17 nM.

Regarding `CCC(=O)N1c2ccccc2[C@H](Nc2ccc(NC(=O)CNC(=O)C=C3CCC(N[C@@H]4C[C@H](C)N(C(=O)CC)c5ccccc54)CC3)cc2)C[C@@H]1C` (relative stereo) [Compound 15j, 2-(4-(((2S*,4R*)-2-Methyl-1-propionyl-1,2,3,4-tetrahydroquinolin-4-yl)amino)cyclohexylidene)-N-(2-((4-(((2S,4R)-2-methyl-1-propionyl-1,2,3,4-tetrahydroquinolin-4-yl)amino)phenyl)amino)-2-oxoethyl)acetamide], the IC90 turned out to be 0.52 nM.
